In article PMC11233931, “Remodeling tumor‐associated macrophage for anti‐cancer effects by rational design of irreversible inhibition of mitogen‐activated protein kinase‐activated protein kinase 2” (MedComm, 2024):

Columns and labels:
Assay in all cases: Eurofins kinase selectivity profile against 380 other human recombinant kinases (Table S2)
Type in all cases: biochemical
[1] = target: T1, 380 human recombinant protein kinases (Homo sapiens, UniProt Q96NX5); details: CaMKIγ(h), read-out: Inhibition rate
T1 construct: purchased Eurofins (Celle Lévescault)
T1 sequence (Q96NX5 whole entry): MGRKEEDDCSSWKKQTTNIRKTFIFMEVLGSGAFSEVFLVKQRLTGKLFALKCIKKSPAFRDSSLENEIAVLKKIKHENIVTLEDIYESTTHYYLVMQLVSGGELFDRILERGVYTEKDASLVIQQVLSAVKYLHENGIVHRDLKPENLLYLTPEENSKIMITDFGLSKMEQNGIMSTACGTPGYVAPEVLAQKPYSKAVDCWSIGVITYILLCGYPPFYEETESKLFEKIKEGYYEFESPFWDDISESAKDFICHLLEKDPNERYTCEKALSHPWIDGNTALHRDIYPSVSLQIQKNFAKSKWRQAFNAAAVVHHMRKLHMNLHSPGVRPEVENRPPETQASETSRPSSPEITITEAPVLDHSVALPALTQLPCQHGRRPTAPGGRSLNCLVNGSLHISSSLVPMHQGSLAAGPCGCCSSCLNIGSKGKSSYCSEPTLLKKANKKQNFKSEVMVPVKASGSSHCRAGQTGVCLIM
In short: (§1)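 Off-target profiling: one compound assayed by a commercial provider over 380 recombinant human protein kinases at various concentrations.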

[2] = target: T2, 380 human recombinant protein kinases (Homo sapiens, UniProt P41240); details: CSK(h), read-out: Inhibition rate
T2 construct: purchased Eurofins (Celle Lévescault)
T2 sequence (P41240 whole entry): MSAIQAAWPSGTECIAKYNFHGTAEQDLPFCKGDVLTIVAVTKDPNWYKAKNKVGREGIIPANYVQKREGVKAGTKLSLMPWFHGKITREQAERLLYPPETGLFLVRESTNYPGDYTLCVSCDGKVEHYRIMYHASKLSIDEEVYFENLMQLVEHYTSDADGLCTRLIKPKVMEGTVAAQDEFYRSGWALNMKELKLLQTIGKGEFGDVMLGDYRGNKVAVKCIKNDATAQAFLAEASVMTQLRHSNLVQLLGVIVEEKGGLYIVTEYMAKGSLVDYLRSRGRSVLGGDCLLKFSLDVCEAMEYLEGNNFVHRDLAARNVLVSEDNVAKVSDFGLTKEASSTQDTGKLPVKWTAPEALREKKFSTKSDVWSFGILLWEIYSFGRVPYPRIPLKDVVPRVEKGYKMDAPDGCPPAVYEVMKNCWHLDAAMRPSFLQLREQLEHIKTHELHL
In short: as §1

[3] = target: T3, 380 human recombinant protein kinases (Homo sapiens, UniProt P07949); details: Ret(h), read-out: Inhibition rate
T3 construct: purchased Eurofins (Celle Lévescault)
In short: as §1

[4] = target: T4, 380 human recombinant protein kinases (Homo sapiens, UniProt Q02750); details: MEK1(h), read-out: Inhibition rate
T4 construct: purchased Eurofins (Celle Lévescault)
T4 sequence (Q02750 whole entry): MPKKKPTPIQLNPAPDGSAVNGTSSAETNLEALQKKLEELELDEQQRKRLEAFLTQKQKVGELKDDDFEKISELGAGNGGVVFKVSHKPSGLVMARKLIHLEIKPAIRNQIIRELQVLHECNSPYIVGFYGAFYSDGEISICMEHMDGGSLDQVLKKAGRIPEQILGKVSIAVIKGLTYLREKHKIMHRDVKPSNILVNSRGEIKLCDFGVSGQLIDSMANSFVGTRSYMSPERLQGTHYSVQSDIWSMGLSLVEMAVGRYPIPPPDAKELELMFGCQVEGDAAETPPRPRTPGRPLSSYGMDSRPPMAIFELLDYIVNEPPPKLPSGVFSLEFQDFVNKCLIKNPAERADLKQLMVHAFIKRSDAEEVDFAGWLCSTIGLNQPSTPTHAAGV
In short: as §1

[5] = target: T5, 380 human recombinant protein kinases (Homo sapiens, UniProt P78368); details: CK1γ2(h), read-out: Inhibition rate
T5 construct: purchased Eurofins (Celle Lévescault)
T5 sequence (P78368 whole entry): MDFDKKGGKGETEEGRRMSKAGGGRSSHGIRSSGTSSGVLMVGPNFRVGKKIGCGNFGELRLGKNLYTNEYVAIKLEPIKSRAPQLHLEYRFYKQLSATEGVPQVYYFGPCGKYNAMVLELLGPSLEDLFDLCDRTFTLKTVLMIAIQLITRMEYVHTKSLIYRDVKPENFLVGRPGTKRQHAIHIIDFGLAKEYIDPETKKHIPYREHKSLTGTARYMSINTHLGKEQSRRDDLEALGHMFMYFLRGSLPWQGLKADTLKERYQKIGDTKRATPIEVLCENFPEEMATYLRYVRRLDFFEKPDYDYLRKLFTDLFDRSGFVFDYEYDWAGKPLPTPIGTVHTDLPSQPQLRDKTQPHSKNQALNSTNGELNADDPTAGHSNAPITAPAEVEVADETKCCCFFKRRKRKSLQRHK
In short: as §1

[6] = target: T6, 380 human recombinant protein kinases (Homo sapiens, UniProt Q16816); details: PhKγ1(h), read-out: Inhibition rate
T6 construct: purchased Eurofins (Celle Lévescault)
T6 sequence (Q16816 whole entry): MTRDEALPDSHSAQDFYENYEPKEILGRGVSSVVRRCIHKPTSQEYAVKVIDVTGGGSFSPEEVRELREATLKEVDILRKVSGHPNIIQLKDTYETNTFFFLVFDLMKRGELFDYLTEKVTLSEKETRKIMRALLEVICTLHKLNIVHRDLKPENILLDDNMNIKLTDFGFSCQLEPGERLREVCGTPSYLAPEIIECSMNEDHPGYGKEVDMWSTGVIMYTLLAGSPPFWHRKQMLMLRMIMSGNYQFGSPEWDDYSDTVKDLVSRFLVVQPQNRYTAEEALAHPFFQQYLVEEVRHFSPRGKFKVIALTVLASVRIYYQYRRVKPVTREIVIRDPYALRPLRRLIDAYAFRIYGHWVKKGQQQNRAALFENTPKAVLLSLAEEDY
In short: as §1

[7] = target: T7, 380 human recombinant protein kinases (Homo sapiens, UniProt P36897); details: TGFBR1(h), read-out: Inhibition rate (%)
T7 construct: purchased Eurofins (Celle Lévescault)
T7 sequence (P36897 34-503): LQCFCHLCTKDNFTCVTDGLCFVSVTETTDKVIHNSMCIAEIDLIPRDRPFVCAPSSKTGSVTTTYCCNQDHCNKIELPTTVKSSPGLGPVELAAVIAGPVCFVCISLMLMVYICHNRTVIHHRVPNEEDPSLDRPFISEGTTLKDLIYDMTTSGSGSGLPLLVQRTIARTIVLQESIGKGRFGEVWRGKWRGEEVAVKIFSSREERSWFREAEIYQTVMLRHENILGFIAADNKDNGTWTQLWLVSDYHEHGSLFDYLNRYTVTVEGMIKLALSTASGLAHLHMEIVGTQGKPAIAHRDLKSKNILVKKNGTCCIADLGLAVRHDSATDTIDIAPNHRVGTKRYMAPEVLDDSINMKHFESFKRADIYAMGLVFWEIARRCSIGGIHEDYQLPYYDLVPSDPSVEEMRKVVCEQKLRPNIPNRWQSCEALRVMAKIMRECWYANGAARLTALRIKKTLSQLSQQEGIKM
In short: as §1

[8] = target: T8, 380 human recombinant protein kinases (Homo sapiens, UniProt P42336, E545K); details: PI3 Kinase (p110α(E545K)/p85α)(h), read-out: Inhibition rate (%)
T8 construct: purchased Eurofins (Celle Lévescault)
T8 sequence (P42336 whole entry E545K): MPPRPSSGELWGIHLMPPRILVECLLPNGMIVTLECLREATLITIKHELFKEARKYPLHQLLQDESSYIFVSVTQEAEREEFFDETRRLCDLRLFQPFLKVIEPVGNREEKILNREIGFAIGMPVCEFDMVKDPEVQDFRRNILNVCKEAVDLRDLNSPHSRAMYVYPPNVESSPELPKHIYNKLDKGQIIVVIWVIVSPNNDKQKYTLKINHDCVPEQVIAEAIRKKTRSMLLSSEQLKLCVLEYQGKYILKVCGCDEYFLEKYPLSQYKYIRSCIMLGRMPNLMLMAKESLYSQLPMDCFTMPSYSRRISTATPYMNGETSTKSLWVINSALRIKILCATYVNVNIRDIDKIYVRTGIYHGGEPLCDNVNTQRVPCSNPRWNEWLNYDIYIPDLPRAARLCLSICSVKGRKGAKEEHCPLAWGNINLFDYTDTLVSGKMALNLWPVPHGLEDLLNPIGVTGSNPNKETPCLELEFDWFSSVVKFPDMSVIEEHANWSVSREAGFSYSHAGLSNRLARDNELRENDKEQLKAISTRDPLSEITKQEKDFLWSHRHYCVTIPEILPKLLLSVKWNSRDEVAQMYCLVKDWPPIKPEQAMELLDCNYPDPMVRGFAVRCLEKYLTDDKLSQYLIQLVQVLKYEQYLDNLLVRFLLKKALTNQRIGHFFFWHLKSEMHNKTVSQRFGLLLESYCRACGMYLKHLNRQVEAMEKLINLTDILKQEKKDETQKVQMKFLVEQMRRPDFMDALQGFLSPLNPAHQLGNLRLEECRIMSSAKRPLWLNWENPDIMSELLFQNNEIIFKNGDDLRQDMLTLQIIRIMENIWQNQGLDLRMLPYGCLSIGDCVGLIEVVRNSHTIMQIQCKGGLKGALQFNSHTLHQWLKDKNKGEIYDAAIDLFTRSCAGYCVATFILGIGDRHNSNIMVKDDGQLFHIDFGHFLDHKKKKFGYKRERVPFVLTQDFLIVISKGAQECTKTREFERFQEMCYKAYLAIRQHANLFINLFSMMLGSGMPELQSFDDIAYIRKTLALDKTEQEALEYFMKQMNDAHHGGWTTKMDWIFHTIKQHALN
In short: as §1

[9] = target: T9, 380 human recombinant protein kinases (Homo sapiens, UniProt Q13043); details: MST1(h), read-out: Inhibition rate
T9 construct: purchased Eurofins (Celle Lévescault)
T9 sequence (Q13043 1-487): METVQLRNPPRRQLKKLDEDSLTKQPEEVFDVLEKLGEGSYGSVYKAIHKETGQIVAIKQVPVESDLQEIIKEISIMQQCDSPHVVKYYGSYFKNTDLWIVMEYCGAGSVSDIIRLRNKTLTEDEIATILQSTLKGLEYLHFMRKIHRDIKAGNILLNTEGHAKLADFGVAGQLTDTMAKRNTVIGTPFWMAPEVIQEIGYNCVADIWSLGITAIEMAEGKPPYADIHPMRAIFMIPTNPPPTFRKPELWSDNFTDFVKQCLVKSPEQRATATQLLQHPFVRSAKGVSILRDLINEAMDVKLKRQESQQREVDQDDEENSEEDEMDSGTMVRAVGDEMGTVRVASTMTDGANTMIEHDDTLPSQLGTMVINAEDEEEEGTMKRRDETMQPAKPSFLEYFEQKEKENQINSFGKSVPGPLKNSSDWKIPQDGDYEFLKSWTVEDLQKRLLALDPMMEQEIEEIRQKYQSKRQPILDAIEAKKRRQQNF
In short: as §1

[10] = target: T10, 380 human recombinant protein kinases (Homo sapiens, UniProt P0C1S8); details: Wee1B(h), read-out: Inhibition rate (%)
T10 construct: purchased Eurofins (Celle Lévescault)
T10 sequence (P0C1S8 whole entry): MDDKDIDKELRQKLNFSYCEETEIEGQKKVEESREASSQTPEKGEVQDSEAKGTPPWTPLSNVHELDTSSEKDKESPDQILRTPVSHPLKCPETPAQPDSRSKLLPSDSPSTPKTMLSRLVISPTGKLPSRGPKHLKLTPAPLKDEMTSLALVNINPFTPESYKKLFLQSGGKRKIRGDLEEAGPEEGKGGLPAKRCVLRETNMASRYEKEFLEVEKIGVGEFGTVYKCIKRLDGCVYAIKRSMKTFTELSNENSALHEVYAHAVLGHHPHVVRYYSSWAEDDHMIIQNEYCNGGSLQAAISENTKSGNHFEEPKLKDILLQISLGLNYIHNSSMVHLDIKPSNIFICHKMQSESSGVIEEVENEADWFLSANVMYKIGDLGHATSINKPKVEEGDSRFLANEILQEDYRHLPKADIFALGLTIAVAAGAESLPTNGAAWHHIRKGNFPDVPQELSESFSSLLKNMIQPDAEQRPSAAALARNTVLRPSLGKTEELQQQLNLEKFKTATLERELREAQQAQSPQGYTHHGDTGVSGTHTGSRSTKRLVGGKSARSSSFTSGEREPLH
In short: as §1

[11] = target: T11, 380 human recombinant protein kinases (Homo sapiens, UniProt P24723); details: PKCη(h), read-out: Inhibition rate
T11 construct: purchased Eurofins (Celle Lévescault)
T11 sequence (P24723 whole entry): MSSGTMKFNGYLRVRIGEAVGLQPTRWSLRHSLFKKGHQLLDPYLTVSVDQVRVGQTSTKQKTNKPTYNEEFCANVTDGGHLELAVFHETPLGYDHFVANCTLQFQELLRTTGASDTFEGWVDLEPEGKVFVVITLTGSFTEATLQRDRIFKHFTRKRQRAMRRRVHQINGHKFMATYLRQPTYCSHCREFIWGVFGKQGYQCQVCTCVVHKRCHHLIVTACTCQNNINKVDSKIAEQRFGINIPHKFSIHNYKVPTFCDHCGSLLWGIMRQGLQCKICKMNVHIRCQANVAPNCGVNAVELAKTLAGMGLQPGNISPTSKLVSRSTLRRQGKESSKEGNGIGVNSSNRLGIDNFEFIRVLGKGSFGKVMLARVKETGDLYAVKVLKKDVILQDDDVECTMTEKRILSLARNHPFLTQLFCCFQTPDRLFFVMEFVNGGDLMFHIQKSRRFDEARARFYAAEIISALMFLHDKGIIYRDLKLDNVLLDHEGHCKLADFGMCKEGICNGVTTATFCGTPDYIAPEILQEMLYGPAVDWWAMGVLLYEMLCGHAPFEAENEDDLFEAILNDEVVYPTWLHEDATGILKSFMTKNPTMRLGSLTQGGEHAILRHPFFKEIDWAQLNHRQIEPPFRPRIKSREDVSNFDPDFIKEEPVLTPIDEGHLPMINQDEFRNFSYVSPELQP
In short: as §1

Work on `C=CC(=O)Nc1cc(-c2cc(-c3cc4c([nH]3)CCNC4=O)ccn2)ccc1OC(F)(F)F` [compound 11] yielded an inhibition at 0.01 µM ([1]; 10 nM) of -9%, an inhibition at 0.1 µM ([1]; 100 nM) of -14% and an inhibition at 1 µM ([1]; 1000 nM) of -15%. It also gave an inhibition at 0.01 µM ([2]; 10 nM) of -2%, an inhibition at 0.1 µM ([2]; 100 nM) of -1% and an inhibition at 1 µM ([2]; 1000 nM) of -13%. It also gave an inhibition at 0.01 µM ([3]; 10 nM) of 12%, an inhibition at 0.1 µM ([3]; 100 nM) of 2% and an inhibition at 1 µM ([3]; 1000 nM) of 1%. It also gave an inhibition at 0.01 µM ([4]; 10 nM) of -12%, an inhibition at 0.1 µM ([4]; 100 nM) of -4% and an inhibition at 1 µM ([4]; 1000 nM) of -8%. The inhibition at 0.01 µM ([5]; 10 nM) was -7%, the inhibition at 0.1 µM ([5]; 100 nM) was 29% and the inhibition at 1 µM ([5]; 1000 nM) was 74%. It also gave an inhibition at 0.01 µM ([6]; 10 nM) of -3%, an inhibition at 0.1 µM ([6]; 100 nM) of -3% and an inhibition at 1 µM ([6]; 1000 nM) of 2%. The inhibition at 0.01 µM ([7]; 10 nM) was -7%, the inhibition at 0.1 µM ([7]; 100 nM) was -2% and the inhibition at 1 µM ([7]; 1000 nM) was -4%. For the same compound, the inhibition at 0.01 µM ([8]; 10 nM) was 2%, the inhibition at 0.1 µM ([8]; 100 nM) was 2% and the inhibition at 1 µM ([8]; 1000 nM) was 4%. It also gave an inhibition at 0.01 µM ([9]; 10 nM) of -1%, an inhibition at 0.1 µM ([9]; 100 nM) of -9% and an inhibition at 1 µM ([9]; 1000 nM) of 0%. It also gave an inhibition at 0.01 µM ([10]; 10 nM) of -2%, an inhibition at 0.1 µM ([10]; 100 nM) of -4% and an inhibition at 1 µM ([10]; 1000 nM) of 3%. The inhibition at 0.01 µM ([11]; 10 nM) was 1%, the inhibition at 0.1 µM ([11]; 100 nM) was 10% and the inhibition at 1 µM ([11]; 1000 nM) was 9%.
